This note sets out measurements from patent publication US11014911B2, “CDK2 inhibitors” (Pfizer Inc., priority 2019, dated 2021).

Chain of GSK3β (H350L) (P49841 whole entry, stated change not applied): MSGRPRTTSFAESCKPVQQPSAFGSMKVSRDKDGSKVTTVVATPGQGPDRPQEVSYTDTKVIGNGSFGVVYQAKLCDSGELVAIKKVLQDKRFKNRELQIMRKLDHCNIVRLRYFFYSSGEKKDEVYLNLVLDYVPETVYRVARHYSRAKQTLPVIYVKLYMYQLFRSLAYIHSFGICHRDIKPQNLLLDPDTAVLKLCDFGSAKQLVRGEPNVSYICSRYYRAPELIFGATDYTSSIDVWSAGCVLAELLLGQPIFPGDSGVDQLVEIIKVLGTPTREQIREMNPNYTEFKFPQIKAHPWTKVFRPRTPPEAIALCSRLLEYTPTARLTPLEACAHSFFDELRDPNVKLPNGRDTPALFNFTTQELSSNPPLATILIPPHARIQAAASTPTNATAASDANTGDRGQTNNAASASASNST

One experiment concerns the target GSK3β (H350L) (Homo sapiens (Human), UniProt P49841).
Assay: not given
Particulars: read-out: GSK3β Ki.
Regarding `CCCNC(=O)O[C@@H]1CC[C@H](c2cc(NC(=O)Cc3ccnc(OC)c3)[nH]n2)C1` [Example 1, (1R,3S)-3-(3-{[(2-methoxypyridin-4-yl)acetyl]amino}-1H-pyrazol-5-yl)cyclopentyl propylcarbamate], the Ki (in general, a dissociation constant, usually derived from enzyme kinetics or from competition with a known ligand) turned out to be 26.2 nM.

In the case of `CCCNC(=O)O[C@H]1CC[C@@H](c2cc(NC(=O)Cc3ccnc(OC)c3)n[nH]2)C1` [Example 19], the inhibitory constant (Ki) worked out at 20.8 nM.

With `C[C@H]1CCCN1C(=O)O[C@@H]1CC[C@H](c2cc(NC(=O)Cc3ccn(C)n3)n[nH]2)C1` [Example 140], the Ki worked out at 15.3 nM.

In another experiment the target is CDK2/Cyclin E1 full length (Homo sapiens (Human), UniProt P24941). The experiment can be described thus: CDK2/Cyclin E1 full length mobility shift assay. The experiment is classed as biochemical.
Details: not given
Turning to `COCCn1nccc1C(=O)Nc1cc([C@H]2CC[C@@H](OC(=O)N3CC[C@H]3C)C2)[nH]n1` [Example 593, (1R,3S)-3-[3-({[1-(2-methoxyethyl)-1H-pyrazol-5-yl]carbonyl}amino)-1H-pyrazol-5-yl]cyclopentyl (2R)-2-methylazetidine-1-carboxylate], the Ki turned out to be 2.21 nM.

In the case of `COCc1cc(C(=O)Nc2cc([C@H]3CC[C@@H](OC(=O)N4CC[C@@H]4C)C3)[nH]n2)n(C)n1` [Example 595, (1R,3S)-3-[3-({[3-(methoxymethyl)-1-methyl-1H-pyrazol-5-yl]carbonyl}amino)-1H-pyrazol-5-yl]cyclopentyl (2S)-2-methylazetidine-1-carboxylate], the Ki is 1.52 nM.

With `C[C@H]1CCN1C(=O)O[C@@H]1CC[C@H](c2cc(NC(=O)c3ccnn3CCN(C)C)n[nH]2)C1` [Example 596, (1R,3S)-3-{3-[({1-[2-(dimethylamino)ethyl]-1H-pyrazol-5-yl}carbonyl)amino]-1H-pyrazol-5-yl}cyclopentyl (2S)-2-methylazetidine-1-carboxylate], the Ki came out at 1.75 nM.

Regarding `COc1cnc(CC(=O)Nc2cc([C@H]3CC[C@@H](OC(=O)N4CCC4(C)C)C3)[nH]n2)cn1` [Example 602, (1R,3S)-3-(3-{[(5-methoxypyrazin-2-yl)acetyl]amino}-1H-pyrazol-5-yl)cyclopentyl 2,2-dimethylazetidine-1-carboxylate], the Ki is 0.3 nM.

For the compound `Cc1cc(CC(=O)Nc2cc([C@H]3CC[C@@H](OC(=O)N4[C@H](C)C[C@@H]4C)C3)[nH]n2)on1` [Example 607, (1R,3S)-3-(3-{[(3-methyl-1,2-oxazol-5-yl)acetyl]amino}-1H-pyrazol-5-yl)cyclopentyl (2R,4S)-2,4-dimethylazetidine-1-carboxylate], the Ki stood at 1.9 nM.

Consider `Cc1cnc(CC(=O)Nc2cc([C@H]3CC[C@@H](OC(=O)N4[C@@H](C)C[C@@H]4C)C3)[nH]n2)cn1` [Example 608, (1R,3S)-3-(3-{[(5-methylpyrazin-2-y)acetyl]amino}-1H-pyrazol-5-yl)cyclopentyl (2S,4S)-2,4-dimethylazetidine-1-carboxylate], for which the Ki was 1.11 nM.

With `COc1cc(CC(=O)Nc2cc([C@H]3CC[C@@H](OC(=O)N4[C@H](C)C[C@H]4C)C3)[nH]n2)ccn1` [Example 609, (1R,3S)-3-(3-{[(2-methoxypyridin-4-yl)acetyl]amino}-1H-pyrazol-5-yl)cyclopentyl (2R,4R)-2,4-dimethylazetidine-1-carboxylate], the Ki came to 4.81 nM.

For `COc1cnc(CC(=O)Nc2cc([C@H]3CC[C@@H](OC(=O)N4[C@@H](C)C[C@@H]4C)C3)[nH]n2)cn1` [Example 610, (1R,3S)-3-(3-{[(5-methoxypyrazin-2-yl)acetyl]amino}-1H-pyrazol-5-yl)cyclopentyl (2S,4S)-2,4-dimethylazetidine-1-carboxylate], the Ki was 1.04 nM.

With `COc1cc(CC(=O)Nc2cc([C@H]3CC[C@@H](OC(=O)N4C[C@H](O)[C@H]4C)C3)[nH]n2)ccn1` [Example 613, (1R,3S)-3-(3-{[(2-methoxypyridin-4-yl)acetyl]amino}-1H-pyrazol-5-yl)cyclopentyl (2R,3S)-3-hydroxy-2-methylazetidine-1-carboxylate], the Ki came out at 2.98 nM.

For `COc1ccc(CC(=O)Nc2cc([C@H]3CC[C@@H](OC(=O)N4C[C@@H](O)[C@@H]4C)C3)[nH]n2)cn1` [Example 615, (1R,3S)-3-(3-{[(6-methoxypyridin-3-yl)acetyl]amino}-1H-pyrazol-5-yl)cyclopentyl (2S,3R)-3-hydroxy-2-methylazetidine-1-carboxylate], the Ki was 1.99 nM.

Consider `COc1ccc(CC(=O)Nc2cc([C@H]3CC[C@@H](OC(=O)N4C[C@H](OC)[C@H]4C)C3)[nH]n2)cn1` [Example 620, (1R,3S)-3-(3-{[(6-methoxypyridin-3-yl)acetyl]amino}-1H-pyrazol-5-yl)cyclopentyl (2R,3S)-3-methoxy-2-methylazetidine-1-carboxylate], for which the Ki amounted to 3.91 nM.

As for `Cc1cc(CC(=O)Nc2cc([C@H]3CC[C@@H](OC(=O)N4C[C@@](C)(O)[C@@H]4C)C3)[nH]n2)on1` [Example 622, (1R,3S)-3-(3-{[(3-methyl-1,2-oxazol-5-yl)acetyl]amino}-1H-pyrazol-5-yl)cyclopentyl (2S,3R)-3-hydroxy-2,3-dimethylazetidine-1-carboxylate], the Ki worked out at 4 nM.

As to `COc1ccc(CC(=O)Nc2cc([C@@H]3CC[C@H](OC(=O)N4C[C@@](C)(O)[C@@H]4C)C3)[nH]n2)cn1` [Example 626, (1S,3R)-3-(3-{[(6-methoxypyridin-3-yl)acetyl]amino}-1H-pyrazol-5-yl)cyclopentyl (2S,3R)-3-hydroxy-2,3-dimethylazetidine-1-carboxylate], the inhibition constant Ki worked out at 4.73 nM.

Consider `C[C@H]1CCCN1C(=O)O[C@@H]1CC[C@H](c2cc(NC(=O)Cc3ccccn3)n[nH]2)C1` [Example 630, (1R,3S)-3-{3-[(pyridin-2-ylacetyl)amino]-1H-pyrazol-5-yl}cyclopentyl (2S)-2-methylpyrrolidine-1-carboxylate], for which the inhibition constant Ki came out at 1.43 nM.

For `Cc1cc(CC(=O)Nc2cc([C@H]3CC[C@@H](OC(=O)N4CCC[C@H]4C)C3)[nH]n2)on1` [Example 633, (1R,3S)-3-(3-{[(3-methyl-1,2-oxazol-5-yl)acetyl]amino}-1H-pyrazol-5-yl)cyclopentyl (2R)-2-methylpyrrolidine-1-carboxylate], the Ki came to 2.11 nM.

In the case of `Cc1coc(CC(=O)Nc2cc([C@H]3CC[C@@H](OC(=O)N4CCC[C@@H]4C)C3)[nH]n2)n1` [Example 636, (1R,3S)-3-(3-{[(4-methyl-1,3-oxazol-2-yl)acetyl]amino}-1H-pyrazol-5-yl)cyclopentyl (2S)-2-methylpyrrolidine-1-carboxylate], the Ki is 0.83 nM.

With `Cc1csc(CC(=O)Nc2cc([C@H]3CC[C@@H](OC(=O)N4CCC[C@@H]4C)C3)[nH]n2)n1` [Example 637, (1R,3S)-3-(3-{[(4-methyl-1,3-thiazol-2-yl)acetyl]amino}-1H-pyrazol-5-yl)cyclopentyl (2S)-2-methylpyrrolidine-1-carboxylate], the Ki turned out to be 1.47 nM.

As to `Cc1cc(CC(=O)Nc2cc([C@H]3CC[C@@H](OC(=O)N4CCCC[C@@H]4C)C3)[nH]n2)on1` [Example 640, (1R,3S)-3-(3-{[(3-methyl-1,2-oxazol-5-yl)acetyl]amino}-1H-pyrazol-5-yl)cyclopentyl (2S)-2-methylpiperidine-1-carboxylate], the Ki is 0.48 nM.

As for `Cc1cc(CC(=O)Nc2cc([C@H]3CC[C@@H](OC(=O)N4CCOC[C@H]4C)C3)[nH]n2)on1` [Example 643, (1R,3S)-3-(3-{[(3-methyl-1,2-oxazol-5-yl)acetyl]amino}-1H-pyrazol-5-yl)cyclopentyl (3R)-3-methylmorpholine-4-carboxylate], the Ki is 1.84 nM.
